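96-well plates; 48 h exposure; 5 concentrations. Endpoints by linear interpolation between flanking doses. Not reached: highest tested concentration assigned. At the GI50, growth is halved. TGI marks complete inhibition of growth.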
How the values were obtained:
Experiment in all cases: NCI-60 cell line screen, 48 h
[1] = system: BT-549 breast
[2] = system: OVCAR-8 ovarian
[3] = system: SF-295 CNS
[4] = system: SK-MEL-28 melanoma
[5] = system: UO-31 renal
[6] = system: CCRF-CEM leukemia
[7] = system: NCI-H522 lung
[8] = system: HCT-15 colon
[9] = system: HL-60(TB) leukemia
[10] = system: LOX IMVI melanoma
[11] = system: HOP-62 NSCLC
[12] = system: CAKI-1 renal
[13] = system: SR leukemia
[14] = system: U251 CNS
[15] = system: SN12C renal
[16] = system: A549 NSCLC
[17] = system: RPMI-8226 leukemia
[18] = system: MCF7 breast
[19] = system: M14 melanoma
[20] = system: SK-OV-3 ovarian
[21] = system: 786-0 renal
[22] = system: COLO 205 colon
[23] = system: K-562 leukemia
[24] = system: DU-145 prostate
[25] = system: OVCAR-3 ovarian
[26] = system: SK-MEL-5 melanoma
[27] = system: OVCAR-4 ovarian
[28] = system: NCI-H226 lung
[29] = system: MALME-3M melanoma
[30] = system: HT29 colon
[31] = system: MDA-MB-435
[32] = system: A498 renal
[33] = system: ACHN renal
[34] = system: HOP-92 NSCLC
[35] = system: HS 578T breast
[36] = system: NCI/ADR-RES ovarian
[37] = system: OVCAR-5 ovarian
[38] = system: SK-MEL-2 melanoma
[39] = system: SW-620 colon
[40] = system: SF-539 CNS
[41] = system: HCC-2998 colon
[42] = system: RXF 393 renal
[43] = system: NCI-H23 lung
[44] = system: UACC-257 melanoma
[45] = system: MOLT-4 leukemia
[46] = system: TK-10 renal
[47] = system: SF-268 CNS
[48] = system: PC-3 prostate
[49] = system: IGROV1 ovarian
[50] = system: HCT-116 colon
[51] = system: SNB-75 CNS
[52] = system: KM12 colon
[53] = system: NCI-H460 lung

With `CN(C)CCCC(=O)Nc1ccc(Cn2nnc3c2C(=O)c2nnn(Cc4ccc(NC(=O)CCCN(C)C)cc4)c2C3=O)cc1` the GI50 [1] was 13.8 µM, the TGI [1] was 29.8 µM and the GI50 [2] was 5.25 µM. It also gave a TGI [2] of 29.3 µM, a GI50 [3] of 14.4 µM and a TGI [3] of 31.5 µM. The GI50 [4] was 4.55 µM, the TGI [4] was 20.3 µM and the GI50 [5] was > 100 µM. For the same molecule, the TGI [5] was > 100 µM, the GI50 [6] was 2.04 µM and the TGI [6] was 6.35 µM. It also gave a GI50 [7] of 2.15 µM, a TGI [7] of 5.06 µM and a GI50 [8] of 56.8 µM. The TGI [8] was > 100 µM, the GI50 [9] was 1.75 µM and the TGI [9] was 5.17 µM. The GI50 [10] was 2.22 µM, the TGI [10] was 5.62 µM and the GI50 [11] was 17.2 µM. The TGI [11] was 32.8 µM, the GI50 [12] was > 100 µM and the TGI [12] was > 100 µM. It also gave a GI50 [13] of 3.36 µM, a TGI [13] of 61.4 µM and a GI50 [14] of 2.69 µM. It also gave a TGI [14] of 6.62 µM, a GI50 [15] of 1.96 µM and a TGI [15] of 4 µM. The GI50 [16] was 16.8 µM, the TGI [16] was 39.2 µM and the GI50 [17] was 3.17 µM. The TGI [17] was 15.9 µM, the GI50 [18] was 1.45 µM and the TGI [18] was 3.52 µM. It also gave a GI50 [19] of 5.97 µM, a TGI [19] of 24.3 µM and a GI50 [20] of 20.9 µM. It also gave a TGI [20] of 49 µM, a GI50 [21] of 18.2 µM and a TGI [21] of 44.2 µM. For the same molecule, the GI50 [22] was 1.79 µM, the TGI [22] was 3.52 µM and the GI50 [23] was 5.45 µM. The TGI [23] was 55.9 µM, the GI50 [24] was 3.48 µM and the TGI [24] was 10.6 µM. The GI50 [25] was 2.38 µM, the TGI [25] was 6.02 µM and the GI50 [26] was 1.48 µM. For the same molecule, the TGI [26] was 2.84 µM, the GI50 [27] was 1.34 µM and the TGI [27] was 2.64 µM. It also gave a GI50 [28] of 16.5 µM, a TGI [28] of 42.2 µM and a GI50 [29] of 1.39 µM. The TGI [29] was 2.94 µM, the GI50 [30] was 3.22 µM and the TGI [30] was 7.87 µM. The GI50 [31] was 1.82 µM, the TGI [31] was 3.26 µM and the GI50 [32] was 16 µM. The TGI [32] was 45.3 µM, the GI50 [33] was 38.9 µM and the TGI [33] was > 100 µM. The GI50 [34] was 2.51 µM, the TGI [34] was 5.82 µM and the GI50 [35] was 2.93 µM. For the same molecule, the TGI [35] was 7.68 µM, the GI50 [36] was > 100 µM and the TGI [36] was > 100 µM. For the same molecule, the GI50 [37] was 19 µM, the TGI [37] was 51.4 µM and the GI50 [38] was 2.17 µM. It also gave a TGI [38] of 4.64 µM, a GI50 [39] of 3.43 µM and a TGI [39] of 12.2 µM. For the same molecule, the GI50 [40] was 2.34 µM, the TGI [40] was 5.6 µM and the GI50 [41] was 2.43 µM. It also gave a TGI [41] of 5.22 µM, a GI50 [42] of 5 µM and a TGI [42] of 21.6 µM. The GI50 [43] was 2.13 µM, the TGI [43] was 5.01 µM and the GI50 [44] was 3.25 µM. For the same molecule, the TGI [44] was 11.6 µM, the GI50 [45] was 1.96 µM and the TGI [45] was 5.2 µM. The GI50 [46] was > 100 µM, the TGI [46] was > 100 µM and the GI50 [47] was 3.29 µM. For the same molecule, the TGI [47] was 12.8 µM, the GI50 [48] was 4.75 µM and the TGI [48] was 43.4 µM. The GI50 [49] was 2.32 µM, the TGI [49] was 5.74 µM and the GI50 [50] was 3.03 µM. It also gave a TGI [50] of 11.6 µM, a GI50 [51] of 1.69 µM and a TGI [51] of 3.06 µM. For the same molecule, the GI50 [52] was 7.54 µM, the TGI [52] was 22.7 µM and the GI50 [53] was 2.82 µM. It also gave a TGI [53] of 10.8 µM.

Source: PubChem BioAssay (NCI)
